According to patent US10682442B2, “Small molecule drug release from in situ forming degradable scaffolds incorporating hydrogels and bioceramic microparticles” (University of Kentucky Research Foundation, priority 2014, dated 2020):
In brackets after ≈: the same amount, converted by molar mass.

Experiments:
[1] = Drug loading into PBAE microparticles (loading efficiency, surface vs bulk drug); type: physicochemical; details: pre-loaded; 100 mg/mL drug solution
Experimental: FIG. 6A graphically represents the processing method for creating PBAE microparticles, as well as the differences between pre- and post-loaded particles. […] This ratio allowed particles to swell without excess solution remaining, and expected drug loads were calculated under the assumption that all drug solution was imbibed by the microparticles. Particles were lyophilized overnight, briefly re-ground and sieved to break up aggregates, and stored in a vacuum chamber with desiccant. […] Drug-loaded PBAE slabs were ground with 75 wt % HA into particles and stored in a vacuum chamber with desiccant. Predicted values for drug loading using the pre-loading method were obtained by calculating swelling of PBAE in solution based on mass increase and assuming drug was homogeneously present in swollen hydrogels as well as surrounding solution. […] The mixtures containing ethanol and swollen PBAE microparticles were then centrifuged, and supernatants were analyzed using HPLC to detect simvastatin, as described below. Clodronate loading was measured with an identical technique using 50% ethanol, and was detected by absorbance as described below. […] Drug detected in the initial wash was deemed loosely bound to the surface of particles, while drug detected after the 24 hour soak was determined to be imbibed into the bulk of the particles.

[2] = In vitro drug release from in situ forming PLGA scaffolds in PBS (Example 1); type: physicochemical; details: for burst release within one day: freely mixed
Experimental: PLGA was added to NMP and stirred overnight until fully dissolved to create a 20 wt/wt % PLGA solution. […] HA was also mixed homogeneously prior to injection to bring the final mixture to 30 wt % HA. Clodronate-loaded PBAE microparticles pre-loaded with 50 mg/mL clodronate were added using an identical technique. […] FIG. 6B illustrates the differences between the proposed system and a traditional injectable system. Simvastatin and clodronate were measured as described below.
The scaffold mixture was injected dropwise through a 16 gauge, blunt-tipped dispensing needle into PBS at 5% wt/vol. Upon contacting PBS, surface PLGA immediately began to precipitate, forming semi-spherical scaffolds approximately 3 mm in diameter that sank to the bottom of the vial. Samples were kept in an incubator at 37° C. on a plate shaker for the duration of the study. Supernatant was collected and replaced at each time point, and these samples were preserved at 4° C. until analysis. Clodronate release was measured for three loading conditions: freely mixed clodronate without HA filler, freely mixed clodronate with HA filler, and clodronate pre-loaded into PBAE microparticles with HA filler. Because PBAE microparticles were fabricated with HA as a dispersing agent, drug release from loaded particles was not investigated without HA filler. Simvastatin release was measured for three loading conditions: freely mixed simvastatin without HA filler, freely mixed simvastatin with HA filler, and simvastatin pre-loaded into PBAE microparticles with HA filler.
Clodronate from collected supernatants were measured using a Powerwave HT (Biotek; Winooski, Vt., USA). In vitro release supernatant was pipetted into a UV-grade 96-well plate (Greiner Bio-One, Frickenhausen, Germany), and baseline absorbance was measured at 240 nm.
Drug release from polymeric systems is often analyzed using an adaptation of the Higuchi model by Peppas et al., widely known as the power law, to characterize release kinetics (Siepmann J, Peppas N A. Modeling of drug release from delivery systems based on hydroxypropyl methylcellulose (HPMC). Advanced Drug Delivery Reviews 2001; 48:139-57):
[formula] represents Tractional release or drug at time t, k is a constant encompassing scaffold and drug properties, and it is the release exponent used to characterize drug release. In the case of the spherical geometry (consistent with scaffolds formed via dropwise injection), n=0.43 corresponds to pure Fickian diffusion, n=0.85 corresponds to pure case II (polymer relaxation-based) transport, and values in between are combinations of the two, termed anomalous transport (Siepmann J, Peppas N A. Modeling of drug release from delivery systems based on hydroxypropyl methylcellulose (HPMC). Advanced Drug Delivery Reviews 2001; 48:139-57). Plots of
[formula] so release data were truncated to below 60% cumulative release when calculating n. Mass Loss and Degradation

- loading efficiency [1]: 59%
- release rate ([2]; all loading conditions, day 20 through day 31): 3 %/day
- release rate ([2]; freely mixed without HA, through day 19): 0.6 %/day
- burst release within one day ([2]; with HA filler): 32%
- burst release within one day ([2]; without HA): 49%
- release rate ([2]; mixed with HA, through day 19): 1.3 %/day
- release exponent n (power law) ([2]; pre-loaded drug, initial release during burst (first day)): 0.49
- 1 day burst release ([2]; pre-loaded into PBAE microparticles, with HA filler): 32%
- release rate ([2]; pre-loaded into microparticles, through day 19): 1.3 %/day
- solubility (physchem; aqueous with cosolvent or surfactant or cyclodextrin): 20 mg/mL (≈ 81.7 mM)
- solubility (physchem; water): ≥ 100 mg/mL
Compound: O=P(O)(O)C(Cl)(Cl)P(=O)(O)O [clodronate]
